Measurements as given in patent US5866717A, “Metalloproteinase inhibitors” (British Biotech Pharmaceuticals Limited, priority 1994, dated 1999).
Converted amounts (≈) assume the structure as drawn.

Assays:
aqueous solubility = assay type: physicochemical; details: for solubility: water, read-out: Aq. solubility
[1] = molecular target: T1, Human fibroblast collagenase (Homo sapiens, UniProt P03956); assay: biochemical
T1 sequence (P03956 100-469): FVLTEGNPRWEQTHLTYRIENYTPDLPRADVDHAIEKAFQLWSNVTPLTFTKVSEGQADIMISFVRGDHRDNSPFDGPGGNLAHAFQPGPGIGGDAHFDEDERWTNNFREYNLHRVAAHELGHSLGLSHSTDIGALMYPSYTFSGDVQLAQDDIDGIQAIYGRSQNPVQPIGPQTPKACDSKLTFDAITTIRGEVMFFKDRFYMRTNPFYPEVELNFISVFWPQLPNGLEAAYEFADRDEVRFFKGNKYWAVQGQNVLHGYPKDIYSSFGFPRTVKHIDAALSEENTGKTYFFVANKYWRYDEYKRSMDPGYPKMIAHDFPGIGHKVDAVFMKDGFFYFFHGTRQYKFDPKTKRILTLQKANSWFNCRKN

Getatinase A = molecular target: T2, Getatinase A (Homo sapiens, UniProt P08253); assay: biochemical
T2 sequence (P08253 110-660): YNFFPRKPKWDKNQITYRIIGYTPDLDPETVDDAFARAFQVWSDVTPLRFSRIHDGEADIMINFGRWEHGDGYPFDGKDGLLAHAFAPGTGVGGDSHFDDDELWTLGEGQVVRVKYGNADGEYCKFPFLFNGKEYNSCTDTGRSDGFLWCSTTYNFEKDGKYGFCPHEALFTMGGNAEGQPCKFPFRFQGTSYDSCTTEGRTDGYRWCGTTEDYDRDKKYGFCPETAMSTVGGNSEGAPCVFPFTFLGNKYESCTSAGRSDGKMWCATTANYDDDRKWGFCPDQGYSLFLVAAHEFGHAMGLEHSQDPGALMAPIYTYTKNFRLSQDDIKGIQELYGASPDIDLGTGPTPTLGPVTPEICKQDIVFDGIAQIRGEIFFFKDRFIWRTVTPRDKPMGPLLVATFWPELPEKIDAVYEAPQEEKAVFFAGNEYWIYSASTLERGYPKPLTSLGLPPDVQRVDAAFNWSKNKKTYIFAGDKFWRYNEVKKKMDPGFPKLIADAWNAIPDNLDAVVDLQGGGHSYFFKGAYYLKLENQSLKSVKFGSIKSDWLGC

Stromelysin-1 = Stromelysin-1 (Homo sapiens, UniProt P08254); assay: biochemical
Chain of Stromelysin-1 (P08254 100-477, species assumed): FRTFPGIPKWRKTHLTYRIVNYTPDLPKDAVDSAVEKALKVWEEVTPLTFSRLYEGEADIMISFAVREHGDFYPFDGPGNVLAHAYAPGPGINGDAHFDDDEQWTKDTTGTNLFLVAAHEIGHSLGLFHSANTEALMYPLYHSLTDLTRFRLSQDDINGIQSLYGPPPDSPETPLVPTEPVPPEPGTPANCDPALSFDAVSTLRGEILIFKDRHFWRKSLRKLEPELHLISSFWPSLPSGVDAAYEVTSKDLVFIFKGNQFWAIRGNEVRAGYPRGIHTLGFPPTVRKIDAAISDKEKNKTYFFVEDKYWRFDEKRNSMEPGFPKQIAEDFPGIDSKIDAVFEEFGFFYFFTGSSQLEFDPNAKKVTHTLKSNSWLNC

[2] = effective blood concentrations after oral administration; assay type: in vivo; details: no data given

Q: For C=CC[C@H](C(=O)NO)[C@@H](CC(C)C)C(=O)N[C@H](C(=O)NC)C(C)(C)C [Comparator 2, 2S-Allyl-N^4-(2,2-Dimethyl-1S-methylcarbamoyl-propyl)-N^4-hydroxy-3R-isobutyl-succinamide, reference compound], which solubility (aqueous solubility) is on record?
A: 40 µg/mL (≈ 113 µM)

Q: And the IC50 [1]?
A: 4 nM

Q: What about the IC50 (Getatinase A) of the same compound?
A: 15 nM

Q: What does the source list for C=CC[C@H](C(=O)NO)[C@@H](CC(C)C)C(=O)N[C@H](C(=O)NCC(C)(COC)COC)C(C)(C)C [Example 6, 2S-Allyl-N^4 -{1S-[2,2-di-(methoxymethyl)-propylcarbamoyl}-2,2-dimethyl-propyl]-N^1-hydroxy-3R-isobutyl-succinamide]?
A: solubility (aqueous solubility): 400 µg/mL (≈ 848 µM); IC50 [1]: 20 nM; IC50 (Stromelysin-1): 50 nM; IC50 (Getatinase A): 30 nM

Q: With COCCOCOCCNC(=O)[C@@H](NC(=O)[C@H](CC(C)C)[C@H](O)C(=O)NO)C(C)(C)C [Example 1, 2S, N^1 -Dihydroxy-3R-isobutyl-N^4 -{1S-[2-(2-methoxy-ethoxymethoxy)-ethylcarbamoyl]-2,2-dimethyl-propyl}-succinamide] as the compound, how does the solubility (aqueous solubility) read?
A: ≥ 29600 µg/mL

Q: What about the IC50 [1] of the same compound?
A: 10 nM

Q: What about the IC50 (Stromelysin-1) of the same compound?
A: 60 nM

Q: And the IC50 (Getatinase A)?
A: 15 nM

Q: Which results are given for C=CC[C@H](C(=O)NO)[C@@H](CC(C)C)C(=O)N[C@H](C(=O)NCCOCCOC)C(C)(C)C [Example 4, 2S-Allyl-N^1-hydroxy-3R-isobutyl-N^4 -{1S-[2-(2-methoxy-ethoxy)-ethylcarbamoyl]-2,2-dimethyl-propyl}-succinamid]?
A: aqueous solubility (in words) (aqueous solubility; presently preferred compound): good aqueous solubility; solubility (aqueous solubility): 4700 µg/mL (≈ 10600 µM); IC50 [1]: 1 nM; IC50 (Stromelysin-1): 40 nM; effective blood concentrations (in words) [2]: high and prolonged effective blood concentrations; IC50 (Getatinase A): 7 nM

Q: Which results are given for CNC(=O)[C@@H](NC(=O)[C@H](CC(C)C)C(CSc1cccs1)C(=O)NO)C(C)(C)C (stereo partly drawn) [Comparator 3, N^1-(2,2-Dimethyl-1S-methylcarbamoyl-propyl)-N^4-hydroxy-2R -isobutyl-3-(thiophen-2-yl-sulfanylmethyl)-succinamide, reference compound]?
A: solubility (aqueous solubility): 180 µg/mL (≈ 406 µM); IC50 [1]: 1 nM; IC50 (Stromelysin-1): 40 nM; IC50 (Getatinase A): 20 nM

Q: For COCCOCCOCCNC(=O)[C@@H](NC(=O)[C@H](CC(C)C)[C@H](CSc1cccs1)C(=O)NO)C(C)(C)C [Example 9, N^4 -Hydroxy-2R-isobutyl-N^1-(1S{2-[2-(2-methoxy-ethoxy)-ethoxy]-ethylcarbamoyl}-2,2-dimethyl-propyl)-3S-(thiophen-2-yl-sulfanylmethyl)-succinamide], which solubility (aqueous solubility) is on record?
A: 400 µg/mL (≈ 695 µM)

Q: And the IC50 [1]?
A: 2 nM

Q: What about the IC50 (Stromelysin-1) of the same compound?
A: 10 nM

Q: What about the IC50 (Getatinase A) of the same compound?
A: 9 nM

Q: Which solubility (aqueous solubility) does the source give for CNC(=O)[C@@H](NC(=O)[C@H](CC(C)C)[C@H](O)C(=O)NO)C(C)(C)C [Comparator 1, N^4-(2,2-Dimethyl-1S-methylcarbamoyl-propyl)-2S, N^1-dihydroxy-3R -isobutyl-succinamide, reference compound] here?
A: 7700 µg/mL (≈ 23200 µM)
